We go through two molecules from patent publication US20090215752A1, “Compounds, preparation and therapeutic use thereof” (priority 2005, published 2009).

For one test, the system named is PDE4. As to the kind of experiment: Selectivity: inhibition of PDE4 (radioenzymatic assay). Type of test: biochemical, bovine. Particulars: Table 2; 10 μM compound. The method, then: (§1) 2.1.1. Isolation of Phosphodiesterases from Smooth Muscle A 3 g segment of bovine aortic media cut into pieces with scissors was homogenized with an ultra-turrax then a potter glass/glass homogenizer in 7 volumes by weight of buffer A containing a protease inhibitor cocktail (20 mM Tris-HCl, 0.25 M saccharose, 2 mM magnesium acetate, 1 mM dithiothreitol, 5 mM EGTA, 2000 U/ml aprotinin, 10 mg/l leupeptin and 10 mg/l soya trypsic inhibitor). The homogenizate was centrifuged at 105,000 g for 1 hour. The supernatant was loaded on a DEAE-Sephacel column (15×1.6 cm) pre-equilibrated with buffer B (buffer A without the saccharose, EGTA and protease inhibitors). The column was washed until there was no detectable absorption at 280 nm, then eluted with a linear gradient of NaCl (0-0.5 M) in buffer B. 3-ml fractions were collected and enzyme activity was determined under the conditions described hereinbelow to localize the different enzymes PDE1, PDE3, PDE4 and PDE5 which were aliquoted and frozen at −80° C. (Lugnier et al., Biochem. Phamacol., 1986, 35: 1746-1751). PDE2 was isolated from human platelets, provided by Etablissement Français du Sang-Alsace, according to Kameni Tcheudji J F et al., (J. Mol. Biol. 2001; 310: 181-791), and stored until use at −80° C. in small aliquots.
(§2) Cyclic nucleotide phosphodiesterase activity was determined by a radioenzymatic method using tritium-labelled cyclic GMP or AMP (1 μM) as substrate (Lugnier et al., 1986). ^3H-labelled adenosine or guanosine monophosphate formed by hydrolysis of the radiolabelled cyclic nucleotide was then converted to ^3H-labelled adenosine or guanosine in a second reaction with […] in excess. The nucleoside formed was separated from the nucleotides by anion exchange chromatography. Nucleoside radioactivity was determined by liquid scintillation counting. Enzymatic incubations were carried out under conditions allowing no more than 15% hydrolysis of the substrate; each point was performed in duplicate.
(§3) The activity of the compounds was evaluated on other phosphodiesterase isoforms, particularly basal state or calmodulin-activated PDE1 from vascular smooth muscle, PDE3, PDE4 and PDE5 from vascular smooth muscle. The results obtained are presented in Tables 1 and 2 hereinbelow and are expressed as the percentage inhibition of enzymatic activity produced by […] of the test compound.

The next test concerns the target T1, PDE3 (Bos taurus, UniProt A0A3Q1M1E8).
T1 sequence (A0A3Q1M1E8 1-1126): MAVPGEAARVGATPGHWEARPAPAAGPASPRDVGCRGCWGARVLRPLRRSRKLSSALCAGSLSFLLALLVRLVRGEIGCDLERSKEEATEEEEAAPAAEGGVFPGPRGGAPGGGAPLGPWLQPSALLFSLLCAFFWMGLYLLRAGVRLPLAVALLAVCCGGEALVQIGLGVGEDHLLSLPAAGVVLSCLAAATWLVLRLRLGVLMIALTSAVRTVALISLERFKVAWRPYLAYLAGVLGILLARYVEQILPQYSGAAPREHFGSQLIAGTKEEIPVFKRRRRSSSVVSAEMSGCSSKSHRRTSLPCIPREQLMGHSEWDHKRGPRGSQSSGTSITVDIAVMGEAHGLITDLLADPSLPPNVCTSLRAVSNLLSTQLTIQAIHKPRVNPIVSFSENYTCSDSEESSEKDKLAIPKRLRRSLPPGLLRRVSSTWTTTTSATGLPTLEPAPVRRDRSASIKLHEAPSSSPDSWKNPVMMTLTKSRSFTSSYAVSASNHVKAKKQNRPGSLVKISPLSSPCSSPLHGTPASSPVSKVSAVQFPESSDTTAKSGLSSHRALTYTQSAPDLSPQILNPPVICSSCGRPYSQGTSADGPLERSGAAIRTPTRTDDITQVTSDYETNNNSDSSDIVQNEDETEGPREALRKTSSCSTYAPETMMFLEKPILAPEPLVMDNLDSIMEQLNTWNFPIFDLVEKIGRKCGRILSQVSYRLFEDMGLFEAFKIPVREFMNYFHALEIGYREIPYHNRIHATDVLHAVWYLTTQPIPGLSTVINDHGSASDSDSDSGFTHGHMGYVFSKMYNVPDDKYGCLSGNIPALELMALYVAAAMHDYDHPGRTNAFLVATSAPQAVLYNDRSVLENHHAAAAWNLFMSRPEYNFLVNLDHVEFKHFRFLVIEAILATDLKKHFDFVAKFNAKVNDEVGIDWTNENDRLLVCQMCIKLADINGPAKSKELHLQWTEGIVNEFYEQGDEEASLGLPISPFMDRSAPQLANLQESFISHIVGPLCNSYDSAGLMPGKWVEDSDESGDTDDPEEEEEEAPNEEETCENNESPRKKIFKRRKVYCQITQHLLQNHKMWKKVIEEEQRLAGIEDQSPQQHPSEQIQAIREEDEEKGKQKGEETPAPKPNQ
As to the kind of experiment: Selectivity: inhibition of PDE3 (radioenzymatic assay). Particulars: Table 2; 10 μM compound; read-out: PDE3 percentage inhibition at 10 μM. Type of test: biochemical, bovine. The method, then: as §1, with “PDE2 was isolated from human platelets, provided by Etablissement Français du Sang-Alsace, according to Kameni Tcheudji J F et al., (J. Mol. Biol. 2001; 310: 181-791), and stored until use at −80° C. in small aliquots.” left out
(§4) Cyclic nucleotide phosphodiesterase activity was determined by a radioenzymatic method using tritium-labelled cyclic GMP or AMP (1 μM) as substrate (Lugnier et al., 1986). ^3H-labelled adenosine or guanosine monophosphate formed by hydrolysis of the radiolabelled cyclic nucleotide was then converted to ^3H-labelled adenosine or guanosine in a second reaction with one nucleotidase in excess. […] Nucleoside radioactivity was determined by liquid scintillation counting. […]
as §3

In another test the target is T2, PDE2 (Homo sapiens, UniProt O00408).
T2 construct: PDE2 was isolated from human platelets, provided by Etablissement Français du Sang-Alsace; tissue Etablissement Français du Sang-Alsace; host or cells: human platelets
T2 sequence (O00408 whole entry): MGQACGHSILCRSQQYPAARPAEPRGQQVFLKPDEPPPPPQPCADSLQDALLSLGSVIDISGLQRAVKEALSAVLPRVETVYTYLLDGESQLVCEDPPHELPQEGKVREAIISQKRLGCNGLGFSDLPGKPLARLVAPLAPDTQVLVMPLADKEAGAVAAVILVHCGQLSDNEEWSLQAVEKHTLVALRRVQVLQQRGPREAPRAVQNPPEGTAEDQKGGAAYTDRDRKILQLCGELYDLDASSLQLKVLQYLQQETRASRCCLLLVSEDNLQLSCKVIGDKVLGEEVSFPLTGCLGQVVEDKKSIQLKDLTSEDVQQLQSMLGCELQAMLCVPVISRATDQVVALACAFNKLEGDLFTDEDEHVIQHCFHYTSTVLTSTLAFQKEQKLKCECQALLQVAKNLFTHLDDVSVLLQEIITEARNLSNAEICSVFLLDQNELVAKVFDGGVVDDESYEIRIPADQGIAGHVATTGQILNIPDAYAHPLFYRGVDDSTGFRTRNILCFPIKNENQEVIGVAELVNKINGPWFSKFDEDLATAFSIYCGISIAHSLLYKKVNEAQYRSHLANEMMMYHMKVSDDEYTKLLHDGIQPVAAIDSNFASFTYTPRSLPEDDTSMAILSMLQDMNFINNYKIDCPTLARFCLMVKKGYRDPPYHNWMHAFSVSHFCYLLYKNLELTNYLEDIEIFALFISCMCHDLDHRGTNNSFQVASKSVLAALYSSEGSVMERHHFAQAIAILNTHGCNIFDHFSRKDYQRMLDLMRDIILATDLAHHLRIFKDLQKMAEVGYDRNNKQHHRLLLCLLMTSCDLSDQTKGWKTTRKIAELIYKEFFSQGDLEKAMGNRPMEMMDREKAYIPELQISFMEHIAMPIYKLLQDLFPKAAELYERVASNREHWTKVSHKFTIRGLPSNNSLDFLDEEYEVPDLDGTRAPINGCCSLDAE
As to the kind of experiment: Inhibition of PDE2 (radioenzymatic phosphodiesterase assay). The test is classed as biochemical. The note with it: for inhibition at 10 µM: Table 1, 10 μM compound, 1 μM cyclic AMP, read-out: PDE2 percentage inhibition at 10 μM. How it is done:
as §1, §2
The concentration of substance which inhibits enzymatic activity by 50% (IC50) at 1 μM cyclic AMP was calculated by nonlinear regression from the experimental values of hydrolysis rate (Prism, GraphPad).

The next test concerns the target T3, PDE5 (Bos taurus, UniProt Q28156).
T3 construct: PDE3, PDE4 and PDE5 from vascular smooth muscle; from tissue; host or cells: bovine aortic media (vascular smooth muscle), DEAE-Sephacel fraction
As to the kind of experiment: Selectivity: inhibition of PDE5 (radioenzymatic assay). The test is classed as biochemical, bovine. Particulars: Table 2; 10 μM compound; read-out: PDE5 percentage inhibition at 10 μM. How it is done:
as §1, with “PDE2 was isolated from human platelets, provided by Etablissement Français du Sang-Alsace, according to Kameni Tcheudji J F et al., (J. Mol. Biol. 2001; 310: 181-791), and stored until use at −80° C. in small aliquots.” left out
as §4, §3

A further test deals with PDE1. As to the kind of experiment: Selectivity: inhibition of PDE1 (radioenzymatic assay). The test is classed as biochemical, bovine. The note with it: Table 2; 10 μM compound. The method, then: as §1, with “PDE2 was isolated from human platelets, provided by Etablissement Français du Sang-Alsace, according to Kameni Tcheudji J F et al., (J. Mol. Biol. 2001; 310: 181-791), and stored until use at −80° C. in small aliquots.” left out
as §4, §3

The term inhibition denotes how much of the control response was suppressed. By IC50 is commonly meant the concentration needed to halve the response being measured. Take `COc1cc2c(c(OC)c1-c1ccccc1)C(c1cccc(C#N)c1)=NCC(=O)N2C` [Compound 6, 3-(6,8-Dimethoxy-1-methyl-2-oxo-7-phenyl-2,3-dihydro-1H-benzo[e][1,4]diazepin-5-yl)-benzonitrile]: the “PDE4 percentage inhibition at 10 μM” value in the test with PDE4 was determined as 37%. Besides, the inhibition at 10 µM on PDE3 was found to be 40%. For the same molecule, at PDE2, the midpoint of inhibition, the IC50, lay at 1800 nM and the inhibition at 10 µM came to 80%.
In the case of `COCCCc1cccc(C2=NCC(=O)N(C)c3cc(OC)c(-c4ccccc4)c(OC)c32)c1` [Compound 29, 6,8-Dimethoxy-5-[3-(3-methoxy-propyl)-phenyl]-1-methyl-7-phenyl-1,3-dihydro-benzo[e][1,4]diazepin-2-one], the “PDE4 percentage inhibition at 10 μM” value in the test with PDE4 turned out to be 49%. Also, the inhibition at 10 µM on PDE5 worked out at 19%; at PDE3 it was 40%; on PDE2, 91%. For the same molecule, the “PDE1 percentage inhibition at 10 μM” value in the test on PDE1 worked out at 31%. This molecule also gave a half-inhibitory concentration (IC50) on PDE2 of 800 nM.
